The values that follow come from patent US8329859B2, “Peptides that home to tumor lymphatic vasculature and methods of using same” (Sanford-Burnham Medical Research Institute, priority 2001, dated 2012).

The test system of data set [1] is cultured MDA-MB-435 tumor cells. Put plainly: Internalization and subcellular localization in cultured MDA-MB-435 cells. The class given is cell-based, human. The settings on record: one to five hours at 37° C., FIG. 2. The protocol: A fluorescein-conjugated CGNKRTRGC (SEQ ID NO: 1) peptide was utilized to further analyze cellular internalization and subcellular localization. […] Natl. Acad. Sci. 97:13003 (2000). The fluorescein-conjugated peptides were incubated with cultured MDA-MB-435 tumor cells for one to five hours at 37° C. […] Cultured 435 cells also internalized the CGNKRTRGC (SEQ ID NO: 1) phage, although the phage accumulated in the cytoplasm of the cells.

Data set [2] deals with MDA-MB-435 tumor lymphatic vasculature. Briefly: Localization in 435 tumors after tail vein injection, with blood vessel and lymphatic marker staining. It counts as in vivo, nude mice. As to the method: Localization of phage displaying SEQ ID NO: 1 was analyzed with anti-T7 phage antibody following intravenous injection of CGNKRTRGC (SEQ ID NO: 1)-displaying phage into the tail vein of nude mice carrying an MDA-MB-435 tumor. […] Similar results were obtained by a phage overlay assay in which phage were added onto frozen tissue sections, rather than being injected into the mice.
An anti-T7 antiserum was prepared by immunizing New Zealand white rabbits with 10^10 pfu of T7 nonrecombinant phage (Novagen). The initial immunization performed in complete Freund's Adjuvant, while boosters were administered in incomplete Freund's Adjuvant. The antibody titer was estimated by ELISA, and the antiserum was absorbed against BLT5615 bacterial and mouse liver lysates. Phage were detected using anti-T7 phage antiserum (1:1000 dilution) and goat anti-rabbit secondary antibody conjugated to fluorescein.
(§1) Detection of fluorescent peptides and biotin-conjugated tomato lectin was performed as follows. Fluorescein-conjugated peptide CGNKRTRGC (SEQ ID NO: 1) was prepared as described above. The peptide (100 μg in 200 μl of PBS) was injected into the tail vein of mice bearing MDA-MB-435 breast carcinoma tumors. After 10 minutes, biotin-conjugated lycopersicon esculentum (tomato) lectin (100 μg in 200 μl of PBS; Vector; Burlingame, Calif.) was also injected into the tail vein. After 5 minutes, the mouse was perfused through the heart with 4% paraformaldehyde. Tissues were removed and frozen in O.C.T. embedding medium (Tissue-Tek; Torrence, Calif.). Blood vessels were visualized by detecting the tomato lectin with streptavidin-conjugated Alexa 594 (Molecular Probes; Eugene, Oreg.). Green staining indicated the presence of peptide SEQ ID NO: 1, while red staining indicated the presence of tomato lectin.
MDA-MB-435 breast carcinoma tumors contain lymphatic vessels that are positive for markers of lymphatic endothelial cells. To determine whether CGNKRTRGC (SEQ ID NO: 1) homed to the 435 tumor lymphatics, tumor sections were stained with the lymphatic markers VEGFR-3 and LYVE-1. Lymphatic vessels were visualized using a rat anti-mouse VEGFR-3 antibody or with rabbit anti-LYVE-1 antibody produced as described below.
LYVE-1 antibody was produced by immunizing New Zealand White rabbits with a peptide encoding the 19 most C-terminal residues of mouse LYVE-1 (Prevo et al., J. Biol. Chem. 276:19420 (2001)) conjugated to keyhole limpet hemocyanin (KLH; Pierce; Iselin, N.J.). The initial immunization was done in complete Freund's Adjuvant, with boosters performed in incomplete Freund's Adjuvant. Specific antibody was obtained following affinity purification with the peptide coupled to Sulfolink Gel (Pierce). Tissues were processed for fifteen minutes following injection with fluorescein-conjugated peptide using rat anti-mouse anti-VEGFR-3, and rabbit anti-LYVE-1. The anti-LYVE-1 antibody was used at a 1:500 dilution on cryo sections, followed by detection with goat anti-rabbit secondary antibody conjugated to Alexa 594 (Molecular Probes).

For the next data set, the system named is cultured KRIB cells. Briefly: Phage binding and peptide internalization in cultured KRIB cells. It counts as cell-based.
For data set [3], the system named is primary MDA-MB-435 breast carcinoma tumor cell suspensions. Put plainly: Ex vivo phage binding to primary 435 tumor cell suspensions. Also on record: species or system human. Particulars: synthetic peptide added. As to the method: Selected phage were enriched 30-fold relative to nonrecombinant T7 phage in the tumor. Forty-eight individual clones were randomly chosen from the in vivo selected pool, and the inserts sequenced as described below. Individual clones were assayed for the ability to bind cultured 435 cells as well as cell suspensions prepared from 435 tumors.
Xenografts, tumor cell suspensions and ex vivo selections were performed essentially as follows. Nude Balb/c mice were subcutaneously injected with 1×10^6 MDA-MB-435 tumor cells to generate breast carcinoma xenografts. Human MDA-MB-435 breast carcinoma xenograft tumors were harvested 9 to 12 weeks after implantation, and tumor cell suspensions prepared using collagenase (0.5 mg/ml, Sigma).
The suspension was subjected to serial washes with 1% BSA in DME to remove unbound phage. Blood vessel endothelial cells were depleted from the tumor cell mixture using magnetic beads (Dynal; Lake Success, N.Y.) coated with anti-mouse CD31 antibody (MEC 13.3; Pharminogen; San Diego, Calif.) according to the manufacturer's instructions. Phage bound to the CD31-negative cell population were rescued by adding bacteria, and the rescued phage titered and amplified in liquid culture.

The next data set concerns normal tissues. Put plainly: Localization of fluorescent peptide in normal tissues after intravenous injection. It counts as in vivo, mouse. The protocol:
Several normal tissues also were studied for localization of the CGNKRTRGC (SEQ ID NO: 1) peptide.
as §1

Data set [4] concerns Cultured MDA-MB-435 cells. Briefly: Trypan blue cytotoxicity in cultured MDA-MB-435 cells. It counts as cell-based. Particulars: FIG. 7. As to the method:
Cultured MDA-MB-435 cells were incubated with a control peptide (CGEKRTRGC; SEQ ID NO: 3) or with CGNKRTRGC (SEQ ID NO: 1) at 37° C. for 1, 2 or 4 hours. After staining with trypan blue, which is taken up by cells that are dead or dying, the total number of cells were counted, and the percentage of trypan blue stained cells determined. […] In particular, after four hours incubation, at least 7-fold greater trypan blue uptake was evident in cell cultures incubated with peptide SEQ ID NO: 1 as compared to cultures incubated with control peptide.

Data set [5] deals with MDA-MB-435 human breast carcinoma cell xenografts. Briefly: Tumor treatment study. It counts as in vivo, nude mice. Particulars: 67 nmol intravenously twice a week; after about two weeks of treatment; FIG. 8; listed as peptide SEQ ID NO: 1. The protocol: A tumor treatment study was performed using MDA-MB-435 human breast carcinoma cell xenografts prepared by subcutaneously injecting 1×10^6 cells in 200 μl PBS into nude mice. Mice (five per group) were treated intravenously twice a week with 67 nmol CGNKRTRGC peptide (SEQ ID NO: 1) or with PBS starting four weeks after tumor implantation. Tumor volumes were measured once a week for four weeks.

A further data set has as its system mitochondrial membranes. Particulars: 10 μM; cited from earlier work.

“Also recorded” adds a separate entry of the source. No end group written: not given here.

On to “fluorescein-conjugated CGNKRTRGC (SEQ ID NO: 1) peptide: fluorescein-conjugated CGNKRTRGC peptide (cysteine pairing not given here; also: fluorescein conjugate, site not given here)”, for which the “uptake and subcellular localization of fluorescein-conjugated peptide” value is “internalized and translocated to the nucleus” in data set [1] (listed as fluorescein-conjugated SEQ ID NO: 1); “internalized” in data set [1] (listed as fluorescein-labeled peptide SEQ ID NO: 1). In data set [2] (435 tumor tissue, FIG. 5), the “co-localization with lymphatic markers VEGFR-3 and LYVE-1” value is “co-localized”. Moreover, the “internalization and nuclear transport in vivo” value is “internalized and transported into nuclei” in data set [2] (435 tumor tissue, FIG. 5); “internalized and transported into nuclei” in data set [2] (435 tumor tissue, FIG. 5, listed as fluorescein-conjugated SEQ ID NO:1); “accumulated in the nuclei lining the vessel-like structures” in data set [2] (435 tumor tissue, FIG. 5, listed as fluorescein-conjugated peptide (SEQ ID NO: 1)). For the same substance, the “co-localization with blood vessels labeled with biotin-conjugated tomato lectin” value in data set [2] (FIGS. 3A-C) is reported as “notable lack of co-localization”. Also, in data set [2] (mouse, in vivo), the “blood vessel markers Meca-32 and CD31 on the vessels in which the substance localized” value is “negative”. Further, the “localization within 435 tumors after tail vein injection” value in data set [2] (mouse, in vivo) was “localized in vessel-like structures and in individual cells within the tumor”. For the same substance, the “internalization of fluorescein-labeled peptide by cultured KRIB cells” value in the data set with cultured KRIB cells is “internalized”.

“CGNKRTRGC [CGNKRTRGC (SEQ ID NO: 1) peptide]”: the “inhibition of binding of CGNKRTRGC phage by synthetic peptide” value in data set [3] is “inhibited binding”. Further, in data set [2] (VEGFR-3 positive single cells in tumor), the “co-localization with macrophage marker F4/80” value is on record as “lack of co-localization”. In addition, the “localization within 435 tumors after tail vein injection” value in data set [2] (mouse, in vivo) is “accumulated in VEGFR-3 positive single cells within the tumor”. For the same substance, the “localization in normal tissues” value in the data set with normal tissues is given as “Fluorescence was seen only in the kidney tubuli”. Besides, the “trypan blue uptake relative to cultures incubated with control peptide” value in data set [4] (four hours incubation, 37° C.) was “at least 7 fold”. The “cytotoxic effect compared to control peptide SEQ ID NO: 3” value in data set [4] (later time points of 1, 2 or 4 hours, listed as peptide SEQ ID NO: 1) was “significantly enhanced cytotoxic effect; also recorded: significantly enhanced cytotoxicity”. Besides, the “mean tumor volume compared to mice administered PBS alone” value in data set [5] is given as “at least several fold less; also recorded: slowed significantly”.

For the substance D(KLAKLAK)2, the mitochondrial swelling entry in the data set with mitochondrial membranes is “marked mitochondrial swelling”.
